{"source": "patent US20220184059A1", "about": "“PROCESS FOR PREPARING SPHERICAL AGGLOMERATES OF TIMAPIPRANT” (Chiesi Farmaceutici S.p.A., priority 2018, published 2022)", "key": {"[1]": {"assay": "Specific surface area (SSA) by BET nitrogen adsorption", "assay_type": "physicochemical", "method": "The specific surface areas (SSA) of spherical agglomerates of timapiprant obtained according to Examples 3, 5,7 and the micronized timapiprant were measured was determined by BET nitrogen adsorption using the TriStar of Micromeritics apparatus according to following parameters: • Isotherm, Adsorbing/Desorbing Run: 0 to 1 p/p0 • Vials: ⅜ Inch, Degasing Pre-analysis: 2 hours at 40° C., Nitrogen as adsorbate • Preparation: Evacuation Rate 10 mmHg/s; Unrestricted evacuation from 5 mmHg • Vacuum setpoint: 10 mmHg, Evacuation time: 1 hour • Leak Test Duration: 120 s, Outgas Test Duration: 180 s • Measure p0 at intervals during the analysis, Enter the analysis bath temperature: […]77 kelvin • Equilibration Interval: 5 s; Minimum Equilibration Delay at p/p0>=0.995 per 600 s."}, "[2]": {"assay": "Primary particle size distribution by laser diffraction after break up of spherical agglomerates", "assay_type": "physicochemical", "details": "primary particles; for PSD d (0.1), Mean result / PSD d (0.5), Mean result: mean of 10 acquisitions", "method": "The primary particle size distribution results are produced by means of a Malvern 2000 laser diffraction equipment by the analysis of the primary particles in suspension.\nThe particle size distribution laser diffraction measures were performed using a Malvern Mastersizer 2000 equipped with a Hydro 2000S cell for the wet suspension of the Timapiprant primary particles. The spherical agglomerates obtained according to the Examples 3 and 5, were dispersed in water by means of 10 minutes sonication and then added to the cell, previously filled with water, until an obscuration within 5-10% was obtained. The stirring rate was set at 1500 rpm and each of the suspensions produced were analysed by 10 acquisitions, the results are reported in Tables 1 and 2."}, "[3]": {"assay": "Flowability of blend material with excipients", "assay_type": "physicochemical", "details": "for Flowability (s/100 g): blend material of API with excipients of Table 3; for Flow properties of blend: blend material of API with excipients", "method": "The spherical agglomerates of timapiprant or the micronized timapiprant, together with the microcrystalline cellulose, the croscarmellose sodium, the poloxamer, the sodium lauryl sulphate and the colloidal silicon dioxide in the above amounts, are sieved in a sieve of 1.2 mm. The lactose monohydrate is then added, and the resulting mixture is blended in a free fall blender for at least 15 minutes. The magnesium stearate is added to the obtained mixture which is further blended in the free fall blender for additional 3 minutes."}, "[4]": {"system": "patients with atopic eosinophilic asthma", "details": "cited from earlier work"}, "[5]": {"system": "human Th2 lymphocytes and eosinophils", "details": "cited from earlier work"}, "[6]": {"biological_target": "T1, prostaglandin D2 receptor (CRTH2) (Homo sapiens, UniProt Q9Y5Y4)", "T1 sequence (Q9Y5Y4 1-395)": "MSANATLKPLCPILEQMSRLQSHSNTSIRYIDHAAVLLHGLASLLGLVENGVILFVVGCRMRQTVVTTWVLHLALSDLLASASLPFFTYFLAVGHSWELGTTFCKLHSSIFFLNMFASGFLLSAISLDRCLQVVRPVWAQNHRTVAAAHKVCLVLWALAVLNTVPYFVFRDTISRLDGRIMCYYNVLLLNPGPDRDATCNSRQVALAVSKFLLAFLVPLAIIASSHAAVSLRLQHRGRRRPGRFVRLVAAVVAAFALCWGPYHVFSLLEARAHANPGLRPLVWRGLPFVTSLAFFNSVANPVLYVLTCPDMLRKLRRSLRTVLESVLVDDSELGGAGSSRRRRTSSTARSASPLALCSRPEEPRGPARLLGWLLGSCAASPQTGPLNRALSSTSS", "details": "cited from earlier work"}, "[7]": {"details": "agglomerates dispersed in water by 10 minutes sonication, single acquisition"}}, "note": "Where “and” joins values, the source holds several entries; their conditions need not be identical. Equal values may be shown once. Read-outs that look alike come from different tables or passages of the source."}
{"smiles": "Cc1c(Cc2ccc3ccccc3n2)c2cc(F)ccc2n1CC(=O)O", "note": "[Example 3, (5-fluoro-2-methyl-3-quinolin-2-yl-methyl-indol-1-yl)acetic acid]", "values": [{"measurement": "SSA (m^2/g)", "setting": "[1]; listed as Spherical agglomerates of timapiprant of Example 3", "result": 13.1, "unit": "m^2/g"}, {"measurement": "PSD d (0.1)", "setting": "[2]; [7]", "result": 0.28, "unit": "μm"}, {"measurement": "PSD d (0.5)", "setting": "[2]; [7]", "result": 0.56, "unit": "μm"}, {"measurement": "PSD d (0.1), Mean result", "setting": "[2]", "result": 0.28, "unit": "μm"}, {"measurement": "PSD d (0.5), Mean result", "setting": "[2]", "result": 0.56, "unit": "μm"}]}
{"smiles": "Cc1c(Cc2ccc3ccccc3n2)c2cc(F)ccc2n1CC(=O)O", "note": "[Example 5, (5-fluoro-2-methyl-3-quinolin-2-yl-methyl-indol-1-yl)acetic acid]", "values": [{"measurement": "Flowability (s/100 g)", "setting": "[3]; listed as Spherical agglomerates of timapirpant", "result": 4, "unit": "sec s/100 g"}, {"measurement": "Flow properties of blend", "setting": "[3]; listed as spherical agglomerates of timapiprant", "result": "good flowability"}, {"measurement": "SSA (m^2/g)", "setting": "[1]; listed as Spherical agglomerates of timapiprant of Example 5", "result": 10.1, "unit": "m^2/g"}, {"measurement": "PSD d (0.5)", "setting": "[2]; [7]", "result": 0.64, "unit": "μm"}, {"measurement": "PSD d (0.1), Mean result", "setting": "[2]", "result": 0.31, "unit": "μm"}, {"measurement": "PSD d (0.5), Mean result", "setting": "[2]", "result": 0.64, "unit": "μm"}]}
{"smiles": "Cc1c(Cc2ccc3ccccc3n2)c2cc(F)ccc2n1CC(=O)O", "note": "[Example 7, (5-fluoro-2-methyl-3-quinolin-2-yl-methyl-indol-1-yl)acetic acid]", "values": [{"measurement": "SSA (m^2/g)", "setting": "[1]; listed as Spherical agglomerates of timapiprant of Example 7", "result": 15.5, "unit": "m^2/g"}]}
{"smiles": "Cc1c(Cc2ccc3ccccc3n2)c2cc(F)ccc2n1CC(=O)O", "note": "[Micronized Timapiprant, reference compound]", "values": [{"measurement": "Flow properties of blend", "setting": "[3]", "result": "very poor flow properties"}, {"measurement": "Flowability (s/100 g)", "setting": "[3]", "result": "∞"}, {"measurement": "SSA (m^2/g)", "setting": "[1]", "result": "8.0 m^2/g and 7.8 m^2/g"}, {"measurement": "SSA (m^2/g)", "setting": "[1]; listed as micronized timapiprant", "result": "less than 8.5 m^2/g"}]}
{"smiles": "Cc1c(Cc2ccc3ccccc3n2)c2cc(F)ccc2n1CC(=O)O", "note": "[timapiprant]", "values": [{"measurement": "Clinical efficacy", "setting": "[4]", "result": "effective in reducing airway inflammation and improving lung function and quality of life"}, {"measurement": "Inhibition of mast cell-dependent activation", "setting": "[5]", "result": "inhibits mast cell-dependent activation of both human Th2 lymphocytes and eosinophils"}, {"measurement": "CRTH2 antagonist activity", "setting": "[6]", "result": "potent, selective, and orally active prostaglandin D2 receptor (CRTH2) antagonist"}]}
